Data taken from patent US20240360177A1, “PEPTIDES WITH ANTIMICROBIAL ACTIVITIES” (priority 2021, published 2024).
In brackets after ≈: the same amount, converted by molar mass. Read-outs that look alike come from different tables or passages of the source. Starred links: 1 amine or outer side, 2 acyl side, 3 side chain; linkers in the order of their positions; H or OH if unused. Non-standard residues stand in square brackets, D forms with d. Residues, ends and D or L forms follow the SMILES beside them. NH(CH2)9CO = O=C(CCCCCCCCCN[*:1])[*:2]; Aoc = NCCCCCCCC(=O)O

Columns and labels:
C. neoformans = settings: 72 h
C. auris = settings: 24 h
[1] = system: Escherichia coli ATCC 25922; assay type: cell-based
C. albicans = settings: 24 h
[2] = system: Shigella sonnei MMX 10772; assay: Antibacterial broth microdilution MIC, Shigella sonnei; assay type: cell-based; settings: CAMHB
C. parapsilosis = settings: 24 h
C. dubliniensis = settings: 24 h
in vitro [3] = settings: human
C. krusei = settings: 24 h
C. gattii = settings: 72 h
[4] = system: Mycobacterium smegmatis ATCC 700084; assay type: cell-based; settings: ATCC 700084, 48 h
[5] = system: Microsporum gypseum ATCC 14683
C. glabrata = settings: 24 h
C. tropicalis = settings: 24 h
[6] = system: Mycobacterium fortuitum ATCC 110; assay: Antibacterial broth microdilution MIC, Mycobacterium fortuitum; assay type: cell-based; settings: 48 hrs
[7] = system: Pseudomonas aeruginosa ATCC 27853; assay type: cell-based
[8] = system: Trichophyton rubrum ATCC MYA-4438
[9] = system: Salmonella senftenberg CDC 127; assay type: cell-based
[10] = system: Staphylococcus aureus ATCC 29213; assay type: cell-based
[11] = system: Epidermophyton floccosum ATCC 52066
[12] = system: Klebsiella pneumoniae ATCC 13883; assay type: cell-based
Fusarium spp. = settings: 48 h
Scedosporium spp. = settings: 72 h
Coccidioides species = settings: N = 10 strains; 48-72 hrs; >50% inhibition
[13] = Acute toxicity in CD-1 mice; settings: both sexes, mouse, in vivo
Method: Acute toxicity and subacute toxicity of ACPs were tested in CD-1 mice. In the acute toxicity study, groups of CD-1 male or female mice were administered single intravenous or intraperitoneal escalating doses (n=2-3 per dose) of the peptides dissolved in normal saline for injection or in phosphate buffered saline. The intravenous dose was administered via tail vein with a slow push over 15-20 seconds. Doses were escalated based on tolerability.

[14] = mice
in vitro [15] = settings: human, human serum, full strength
[16] = Subacute toxicity in CD-1 mice; assay type: in vivo; settings: daily IP for 7 days
Method: In the subacute toxicity study, groups of CD-1 male or female mice were administered seven consecutive daily intraperitoneal doses (n=3 per dose) of the peptides (SEQ ID NO: 7, SEQ ID NO: 29, SEQ ID NO: 53) dissolved in normal saline for injection. Each peptide was evaluated at 2 to 3 dose levels ranging from 2.5 to 7.5 mg/kg/day. Mice were weighed at least once daily and observed at least twice daily for any abnormal findings and determination of overall health. At 24 hrs after the last dose, mice were humanely euthanized, with blood collected through cardiac puncture into K2EDTA microtainers to assess hematological parameters. All three peptides were tolerated at the highest dose evaluated (7.5 mg/kg/day) for 7 days.

[17] = EC50 cytotoxicity in HepG2, intracellular ATP assay

Row | SMILES | MIC C. neoformans (C. neoformans) | MIC C. auris (C. auris) | MIC Escherichia coli [1] | MIC C. albicans (C. albicans) | MIC Shigella sonnei [2] | MIC C. parapsilosis (C. parapsilosis) | MIC C. dubliniensis (C. dubliniensis) | EC50 (in vitro [3]; [17]) | MIC C. krusei (C. krusei) | MIC C. gattii (C. gattii) | MIC Mycobacterium smegmatis [4] | MIC Microsporum gypseum [5] | MIC C. glabrata (C. glabrata) | MIC C. tropicalis (C. tropicalis) | MIC Mycobacterium fortuitum [6] | MIC Pseudomonas aeruginosa [7] | MIC Trichophyton rubrum [8] | MIC Salmonella senftenberg [9] | MIC Staphylococcus aureus [10] | MIC Range Fusarium spp. (Fusarium spp.) | other results
1 | N=C(N)NCCC[C@@H](N)C(=O)N[C@@H](CCCNC(=N)N)C(=O)N[C@H](CCCNC(=N)N)C(=O)NCC(=O)N[C@H](CCCNC(=N)N)C(=O)N[C@@H](CCCNC(=N)N)C(=O)N[C@H](CCCNC(=N)N)C(=O)NCC(=O)N[C@H](CCCNC(=N)N)C(=O)N[C@@H](CCCNC(=N)N)C(=O)N[C@H](CCCNC(=N)N)C(=O)N[C@@H](CCCNC(=N)N)C(=O)NCC(=O)N[C@H](CCCNC(=N)N)C(=O)N[C@@H](CCCNC(=N)N)C(=O)N[C@H](CCCNC(=N)N)C(=O)N[C@@H](CCCNC(=N)N)C(=O)N[C@@H](CS)C(=O)O [SEQ ID NO: 2, rRr-G-rRr-G-rRrR-G-rRrR-Cys] (H-[dR]R[dR]G[dR]R[dR]G[dR]R[dR]RG[dR]R[dR]RC-OH) | 0.5 µg/mL (≈ 0.202 µM) | 2 µg/mL (≈ 0.807 µM) | 8 µg/mL (≈ 3.23 µM) | 0.5 µg/mL (≈ 0.202 µM) | 16 µg/mL (≈ 6.45 µM) | 0.25 µg/mL (≈ 0.101 µM) | 0.5 µg/mL (≈ 0.202 µM) | 40 µg/mL (≈ 16.1 µM) | 0.5 µg/mL (≈ 0.202 µM) | 0.5 µg/mL (≈ 0.202 µM) | 1 µg/mL (≈ 0.403 µM) | >64 µg/mL | 0.5 µg/mL (≈ 0.202 µM) | 0.25 µg/mL (≈ 0.101 µM) | 4 µg/mL (≈ 1.61 µM) | 32 µg/mL (≈ 12.9 µM) | 2 µg/mL (≈ 0.807 µM) | 32 µg/mL (≈ 12.9 µM) | 8 µg/mL (≈ 3.23 µM) | 0.12 to 0.25 µg/mL | MIC50 against Candida spp. (Candida spp.): 0.5 µg/mL (≈ 0.202 µM); MIC90 against Candida spp. (Candida spp.): 2 µg/mL (≈ 0.807 µM); EC50 (in vitro [3]; EC50 cytotoxicity in HepG2 cells (50% cell viability)): 39.6 µg/mL (≈ 16 µM); MIC Epidermophyton floccosum [11]: 4 µg/mL (≈ 1.61 µM); MIC Klebsiella pneumoniae [12]: 64 µg/mL (≈ 25.8 µM)
2 | N=C(N)NCCC[C@@H](N)C(=O)N[C@@H](CCCNC(=N)N)C(=O)N[C@H](CCCNC(=N)N)C(=O)NCCCCCCCCCC(=O)N[C@H](CCCNC(=N)N)C(=O)N[C@@H](CCCNC(=N)N)C(=O)N[C@H](CCCNC(=N)N)C(=O)NCCCCCCCC(=O)N[C@H](CCCNC(=N)N)C(=O)N[C@@H](CCCNC(=N)N)C(=O)N[C@H](CCCNC(=N)N)C(=O)N[C@@H](CCCNC(=N)N)C(=O)NCCCCCCCC(=O)N[C@H](CCCNC(=N)N)C(=O)N[C@@H](CCCNC(=N)N)C(=O)N[C@H](CCCNC(=N)N)C(=O)N[C@@H](CCCNC(=N)N)C(=O)NCCCCCCCC(=O)O [SEQ ID NO: 34, rRr-(Ada)-rRr-(Aoa)-rRrR-(Aoa)-rRrR-Aoa] (H-[dR]R[dR][NH(CH2)9CO][dR]R[dR][Aoc][dR]R[dR]R[Aoc][dR]R[dR]R[Aoc]-OH) | 0.5 µg/mL (≈ 0.179 µM) | 0.5 µg/mL (≈ 0.179 µM) | 4 µg/mL (≈ 1.43 µM) | 2 µg/mL (≈ 0.715 µM) | 4 µg/mL (≈ 1.43 µM) | 0.5 µg/mL (≈ 0.179 µM) | 0.5 µg/mL (≈ 0.179 µM) | 162 µg/mL (≈ 57.9 µM) | 1 µg/mL (≈ 0.357 µM) | 0.5 µg/mL (≈ 0.179 µM) | 1 µg/mL (≈ 0.357 µM) | 32 µg/mL (≈ 11.4 µM) | 8 µg/mL (≈ 2.86 µM) | 0.5 µg/mL (≈ 0.179 µM) | 2 µg/mL (≈ 0.715 µM) | 16 µg/mL (≈ 5.72 µM) | 4 µg/mL (≈ 1.43 µM) | 8 µg/mL (≈ 2.86 µM) | 16 µg/mL (≈ 5.72 µM) | 0.25 to 2 µg/mL | MIC Epidermophyton floccosum [11]: 8 µg/mL (≈ 2.86 µM); MIC Klebsiella pneumoniae [12]: 8 µg/mL (≈ 2.86 µM)
3 | N=C(N)NCCC[C@@H](N)C(=O)N[C@@H](CCCNC(=N)N)C(=O)N[C@H](CCCNC(=N)N)C(=O)N1CCC[C@H]1C(=O)N[C@H](CCCNC(=N)N)C(=O)N[C@@H](CCCNC(=N)N)C(=O)N[C@H](CCCNC(=N)N)C(=O)N1CCC[C@H]1C(=O)N[C@H](CCCNC(=N)N)C(=O)N[C@@H](CCCNC(=N)N)C(=O)N[C@H](CCCNC(=N)N)C(=O)N[C@@H](CCCNC(=N)N)C(=O)N1CCC[C@H]1C(=O)N[C@H](CCCNC(=N)N)C(=O)N[C@@H](CCCNC(=N)N)C(=O)N[C@H](CCCNC(=N)N)C(=O)N[C@@H](CCCNC(=N)N)C(N)=O [SEQ ID NO: 53, rRr-P-rRr-P-rRrR-P-rRrR-NH2] (H-[dR]R[dR]P[dR]R[dR]P[dR]R[dR]RP[dR]R[dR]R-NH2) | 0.5 µg/mL (≈ 0.2 µM) | 0.25 µg/mL (≈ 0.1 µM) | – | 0.5 µg/mL (≈ 0.2 µM) | – | 0.25 µg/mL (≈ 0.1 µM) | 0.25 µg/mL (≈ 0.1 µM) | > 300 µg/mL | 0.5 µg/mL (≈ 0.2 µM) | 0.25 µg/mL (≈ 0.1 µM) | – | – | 0.5 µg/mL (≈ 0.2 µM) | 0.5 µg/mL (≈ 0.2 µM) | – | – | – | – | – | 0.25 µg/mL (≈ 0.1 µM) | MIC Range Scedosporium spp. (Scedosporium spp.): 0.25 µg/mL (≈ 0.1 µM); MIC Range Coccidioides species (Coccidioides species): 0.06 to 0.25 µg/mL; MTD ([13]; single IP dose, read-out: Tolerated single intraperitoneal dose): 10 to 15 mg/kg; MTD ([13]; single IV dose via tail vein, read-out: Tolerated single intravenous dose): 5 to 7.5 mg/kg; Activity at 24 h MIC50 against Candida spp. (Candida spp.; 24 h): 0.5 µg/mL; Activity at 24 h MIC90 against Candida spp. (Candida spp.; 24 h): 0.5 µg/mL; Activity at 48 h MIC50 against Candida spp. (Candida spp.; 48 h): 0.5 µg/mL; Activity at 48 h MIC90 against Candida spp. (Candida spp.; 48 h): 2 µg/mL; MIC Range Filamentous Fungi (Filamentous Fungi): 0.12 to 0.25 µg/mL; Kidney to Plasma Concentration Ratio Day 7 ([14]; 6 hrs post dose of 7.5 mg/kg IP once daily, Day 7, mean ± SD, n = 3): 916 ± 36; Kidney to Plasma Concentration Ratio Day 1 ([14]; 6 hrs post dose of 7.5 mg/kg IP, Day 1, mean ± SD, n = 3): 179 ± 106; Day 1 AUC ratio, kidney to plasma ([14]; IP 7.5 mg/kg, Day 1): 58.3; MIC Range Cryptococcus spp. (Cryptococcus spp.): 0.25 to 0.5 µg/mL; MIC Range Lomentospora prolificans (Lomentospora prolificans): 0.12 µg/mL (≈ 0.0481 µM); remaining at 2 h, 5 μM (in vitro [15]): ~100%; Tolerated dose (highest dose evaluated) [16]: 7.5 mg/kg/day; Clinical or hematological adverse effects ([16]; up to 7.5 mg/kg/day): No significant clinical or hematological adverse effects were observed
